# According to ChEMBL document CHEMBL2401688, “Phosphinic acid-based inhibitors of tubulin polyglutamylases” (Bioorg Med Chem Lett, 2013):
# Activity calls are given as the source filed them. No cut-off for these calls is given here.
# How the values were obtained:
# [1] = Inhibition of Escherichia coli MurD ligase
# [2] = biological target: T1, Tubulin polyglutamylase TTLL7 (Mus musculus, UniProt A4Q9F0); assay: (§1) Inhibition of mouse recombinant N-terminal GST-tagged TTLL7-mediated Ac-DATAEEEGEFEEEAEEEVA glutamylation expressed in Escherichia coli Rosetta2 DE3 after 16 hrs by LC-MS analysis
# T1 sequence (A4Q9F0 whole entry): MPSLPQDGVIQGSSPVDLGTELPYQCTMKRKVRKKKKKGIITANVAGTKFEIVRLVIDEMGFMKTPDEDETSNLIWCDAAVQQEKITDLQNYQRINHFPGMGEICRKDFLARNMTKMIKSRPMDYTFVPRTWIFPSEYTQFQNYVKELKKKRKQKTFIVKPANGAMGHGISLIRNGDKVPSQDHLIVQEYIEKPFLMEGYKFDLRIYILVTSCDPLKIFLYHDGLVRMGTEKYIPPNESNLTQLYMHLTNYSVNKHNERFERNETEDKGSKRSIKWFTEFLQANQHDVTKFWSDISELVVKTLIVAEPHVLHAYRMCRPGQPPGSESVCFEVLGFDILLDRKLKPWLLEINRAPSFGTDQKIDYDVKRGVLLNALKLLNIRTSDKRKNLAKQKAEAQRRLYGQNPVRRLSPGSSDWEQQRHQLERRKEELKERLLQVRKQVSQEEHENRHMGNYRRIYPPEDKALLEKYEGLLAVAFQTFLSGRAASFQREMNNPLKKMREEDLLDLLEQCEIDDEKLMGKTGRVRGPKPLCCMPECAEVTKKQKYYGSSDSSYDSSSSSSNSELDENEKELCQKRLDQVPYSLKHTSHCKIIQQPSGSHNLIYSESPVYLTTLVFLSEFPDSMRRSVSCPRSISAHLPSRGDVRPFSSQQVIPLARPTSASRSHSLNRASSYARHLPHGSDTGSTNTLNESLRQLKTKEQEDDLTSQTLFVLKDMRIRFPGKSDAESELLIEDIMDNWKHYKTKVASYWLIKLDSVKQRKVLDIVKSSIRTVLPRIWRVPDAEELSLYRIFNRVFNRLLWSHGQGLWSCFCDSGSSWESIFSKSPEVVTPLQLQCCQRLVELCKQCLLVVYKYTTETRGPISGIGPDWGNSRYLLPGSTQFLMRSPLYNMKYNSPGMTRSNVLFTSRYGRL
# [3] = biological target: T2, Tubulin--tyrosine ligase (Homo sapiens) (UniProt Q8NG68); assay: Inhibition of TTL (unknown origin)
# T2 sequence (whole entry): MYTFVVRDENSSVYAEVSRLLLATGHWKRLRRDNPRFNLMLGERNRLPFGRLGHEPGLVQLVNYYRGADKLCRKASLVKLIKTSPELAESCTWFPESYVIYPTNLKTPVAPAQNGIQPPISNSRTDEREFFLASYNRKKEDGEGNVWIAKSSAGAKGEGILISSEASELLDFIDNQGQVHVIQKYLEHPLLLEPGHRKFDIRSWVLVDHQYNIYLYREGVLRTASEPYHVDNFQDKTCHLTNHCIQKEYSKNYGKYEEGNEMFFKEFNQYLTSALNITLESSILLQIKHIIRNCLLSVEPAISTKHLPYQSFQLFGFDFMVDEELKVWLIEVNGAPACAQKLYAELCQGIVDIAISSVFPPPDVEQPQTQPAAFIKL
# [4] = biological target: T3, Tubulin polyglutamylase TTLL7 (Mus musculus) (UniProt A4Q9F0); assay: as §1
# T3 sequence (whole entry): T1 sequence (A4Q9F0 whole entry)
IC50 [1],IC50 [2],inhibition [3],inhibition [4],Compound
700 nM,,,,CC(NC(=O)CCCCCOP(=O)(O)OP(=O)(O)OC[C@H]1O[C@@H](n2ccc(=O)[nH]c2=O)[C@H](O)[C@@H]1O)P(=O)(O)CC(CCC(=O)O)C(=O)O (stereo partly drawn)
1 nM,,,,CC(=O)N[C@H]1[C@@H](OP(=O)(O)OP(=O)(O)OC[C@H]2O[C@@H](n3ccc(=O)[nH]c3=O)[C@H](O)[C@@H]2O)O[C@H](CO)[C@@H](O)[C@@H]1O[C@H](C)C(=O)N[C@@H](C)P(=O)(O)CC(CCC(=O)O)C(=O)O (stereo partly drawn)
,150000 nM,inactive,,CC(=O)NC(CCC(=O)O)P(=O)(O)CC(CCC(=O)O)C(=O)O (mixture of isomers)
,,inactive,Active,CC(=O)N[C@@H](CCP(=O)(O)CC(CCC(=O)O)C(=O)O)C(=O)O (mixture of isomers)
,,inactive,Active,CCNC(=O)[C@H](CCP(=O)(O)CC(CCC(=O)O)C(=O)O)NC(C)=O (mixture of isomers)
